In patent USRE40086E1, “Method for treating bacterial infection with novel 7-substituted-9-substituted amino 6-demethyl-6-deoxytetracyclines” (Wyeth Holdings Corporation, priority 1991, dated 2008):

How the values were obtained:
S. aureus SMITH (sens) [1] = assay: In vivo antibacterial evaluation, acute lethal infection in mice; details: Intraveneous
[2] = tested on: S. aureus UBMS 88-5 (tetM); assay: MIC, agar dilution; assay type: cell-based; details: S. aureus UBMS 88-5 TetM; Table IA; unit assumed
E. coli MC4100 TetB = assay: MIC, agar dilution (Table IA); assay type: cell-based; details: unit assumed
E. faecalis ATCC 29212 = assay: MIC, agar dilution; assay type: cell-based; details: E. faecalis ATCC 29212; Table IA; unit assumed
E. coli #311 (MP) = assay: MIC, agar dilution (Table IA); assay type: cell-based; details: unit assumed
S. aureus ROSE (MP) = assay: MIC, agar dilution (Table IA); assay type: cell-based; details: unit assumed
E. coli UBMS 88-1 (tetB) = assay: MIC, agar dilution; assay type: cell-based; details: E. coli UBMS 88-1 TetB; Table IA; unit assumed
[3] = tested on: S. aureus Smith (Sensitive); assay: MIC, agar dilution; assay type: cell-based; details: S. aureus SMITH (MP); Table IA; unit assumed
S. aureus SMITH (sens) [4] = assay: In vivo antibacterial evaluation, acute lethal infection in mice; details: Oral
Description: In Vivo Antibacterial Evaluation (Table VII)

E. faecalis 12201 = assay: MIC, agar dilution; assay type: cell-based; details: Enterococcus 12201; Table IA; unit assumed
E. coli UBMS 90-5 = assay: MIC, agar dilution (Table IA); assay type: cell-based; details: unit assumed
[5] = tested on: S. aureus UBMS 90-1 (tetM); assay: MIC, agar dilution; assay type: cell-based; details: S. aureus UBMS 90-1 TetM; Table IA; unit assumed
[6] = tested on: S. aureus UBMS 88-7 (tetK); assay: MIC, agar dilution; assay type: cell-based; details: S. aureus UBMS 88-7 TetK; Table IA; unit assumed
E. coli UBMS 90-4 (tetM) = assay: MIC, agar dilution; assay type: cell-based; details: E. coli UBMS 90-4 TetM; Table IA; unit assumed
S. mariescens FDOR 8733 = assay: MIC, agar dilution (Table IA); assay type: cell-based; details: unit assumed
[7] = tested on: S. aureus ATCC 29213 (Sensitive); assay: MIC, agar dilution; assay type: cell-based; details: S. aureus ATCC 29213; Table IA; unit assumed
E. coli J3272 TetD = assay: MIC, agar dilution (Table IA); assay type: cell-based; details: unit assumed
E. coli ATCC 25922 = assay: MIC, agar dilution; assay type: cell-based; details: E. coli ATCC 25922; Table IA; unit assumed
E. coli J2175 = assay: MIC, agar dilution (Table IA); assay type: cell-based; details: unit assumed
[8] = tested on: S. aureus IVES 2943 (meth. resistant); assay: MIC, agar dilution; assay type: cell-based; details: S. aureus IVES 2943; Table IA; unit assumed
[9] = tested on: S. haemolyticus AVAH 88-3; assay: MIC, agar dilution; assay type: cell-based; details: S. hemolyticus AVHAH 88-3; Table IA; unit assumed
E. coli J3272 Tet sens. = assay: MIC, agar dilution (Table IA); assay type: cell-based; details: unit assumed
[10] = tested on: Ps. acruginosa ATCC 27853; assay: MIC, agar dilution (Table IA); assay type: cell-based; details: unit assumed
[11] = tested on: S. aureus UBMS 90-3 (Sensitive); assay: MIC, agar dilution; assay type: cell-based; details: S. aureus UBMS 90-3; Table IA; unit assumed
[12] = tested on: TetM S30 extract, derivative of E. coli MRE600 containing the tetM determinant; assay: E. coli in vitro transcription and protein translation, 35S-methionine incorporation (Table VIII)
[13] = tested on: E. coli UBMS 89-2 (Sensitive); assay: MIC, agar dilution; assay type: cell-based; details: E. coli UBMS 89-2 Tet Sens.; Table IA; unit assumed
[14] = tested on: S. aureus IVES 1983 (meth. resistant); assay: MIC, agar dilution; assay type: cell-based; details: S. aureus IVES 1983; Table IA; unit assumed
S. aureus NEMC 8769/89-4 = assay: MIC, agar dilution (Table IA); assay type: cell-based; details: unit assumed
E. coli BAJ9003 = assay: MIC, agar dilution (Table IA); assay type: cell-based; details: unit assumed
[15] = tested on: S. aureus UBMS 90-2 (tetM); assay: MIC, agar dilution; assay type: cell-based; details: S. aureus UBMS 90-2 TetM; Table IA; unit assumed
E. coli J3272 TetC = assay: MIC, agar dilution (Table IA); assay type: cell-based; details: unit assumed
[16] = tested on: Wild Type S30 extract, E. coli strain MRE600 (tetracycline sensitive); assay: E. coli in vitro transcription and protein translation, 35S-methionine incorporation (Table VIII)
E. coli UBMS 89-1 (tetM) = assay: MIC, agar dilution; assay type: cell-based; details: E. coli UBMS 89-1 TetM; Table IA; unit assumed
[17] = tested on: S. aureus UBMS 88-4 (Sensitive); assay: MIC, agar dilution; assay type: cell-based; details: S. aureus UBMS 88-4; Table IA; unit assumed
E. coli PRP1 TetA = assay: MIC, agar dilution (Table IA); assay type: cell-based; details: unit assumed
[18] = tested on: X. maltophilia NEMC 87210; assay: MIC, agar dilution (Table IA); assay type: cell-based; details: unit assumed

SMILES | ED50 (S. aureus SMITH (sens) [1]) | Antibacterial activity (MIC) [2] | Antibacterial activity (MIC) (E. coli MC4100 TetB) | Antibacterial activity (MIC) (E. faecalis ATCC 29212) | Antibacterial activity (MIC) (E. coli #311 (MP)) | Antibacterial activity (MIC) (S. aureus ROSE (MP)) | Antibacterial activity (MIC) (E. coli UBMS 88-1 (tetB)) | Antibacterial activity (MIC) [3] | ED50 (S. aureus SMITH (sens) [4]) | Antibacterial activity (MIC) (E. faecalis 12201) | Antibacterial activity (MIC) (E. coli UBMS 90-5) | Antibacterial activity (MIC) [5] | Antibacterial activity (MIC) [6] | Antibacterial activity (MIC) (E. coli UBMS 90-4 (tetM)) | Antibacterial activity (MIC) (S. mariescens FDOR 8733) | Antibacterial activity (MIC) [7] | Antibacterial activity (MIC) (E. coli J3272 TetD) | Antibacterial activity (MIC) (E. coli ATCC 25922) | Antibacterial activity (MIC) (E. coli J2175) | Antibacterial activity (MIC) [8] | also measured
CCCNCC(=O)Nc1cc(N(C)C)c2c(c1O)C(=O)C1=C(O)C3(O)C(=O)C(C(N)=O)=C(O)C(N(C)C)C3CC1C2.Cl.Cl (stereo not drawn) [WW, [4S-(4alpha,12aalpha)]-4,7-bis(dimethylamino)-1,4,4a,5,5a,6,11,12a-octahydro-3,10,12,12a-tetra-hydroxy-1,11-dioxo-9-[[(propylamino)acetyl]amino]-2-naphthacenecarboxamide dihydrochloride] | 0.82 mg/kg | 0.25 µg/mL | 0.25 µg/mL | 0.25 µg/mL | 0.25 µg/mL | 2 µg/mL | 0.25 µg/mL | 0.12 µg/mL | >16 mg/kg | 0.12 µg/mL | 0.25 µg/mL | 0.12 µg/mL | 1 µg/mL | 0.25 µg/mL | 2 µg/mL | 0.25 µg/mL | 0.12 µg/mL | 0.25 µg/mL | 0.25 µg/mL | 2 µg/mL | Antibacterial activity (MIC) [9]: 0.25 µg/mL; Antibacterial activity (MIC) (E. coli J3272 Tet sens.): 0.25 µg/mL; Antibacterial activity (MIC) [10]: 8 µg/mL; Antibacterial activity (MIC) [11]: 0.12 µg/mL; % INHIBITION TetM S30 ([12]; 0.06 mg/ml): 88%; % INHIBITION TetM S30 ([12]; 0.2 mg/ml): 97%; % INHIBITION TetM S30 ([12]; 1.0 mg/ml): 98%; Antibacterial activity (MIC) [13]: 0.25 µg/mL; Antibacterial activity (MIC) [14]: 2 µg/mL; Antibacterial activity (MIC) (S. aureus NEMC 8769/89-4): 0.06 µg/mL; Antibacterial activity (MIC) (E. coli BAJ9003): 0.06 µg/mL; Antibacterial activity (MIC) [15]: 0.25 µg/mL; Antibacterial activity (MIC) (E. coli J3272 TetC): 0.25 µg/mL; % INHIBITION Wild Type S30 ([16]; 0.06 mg/ml): 93%; % INHIBITION Wild Type S30 ([16]; 0.2 mg/ml): 99%; % INHIBITION Wild Type S30 ([16]; 1.0 mg/ml): 99%; Antibacterial activity (MIC) (E. coli UBMS 89-1 (tetM)): 0.25 µg/mL; Antibacterial activity (MIC) [17]: 0.25 µg/mL; Antibacterial activity (MIC) (E. coli PRP1 TetA): 1 µg/mL; Antibacterial activity (MIC) [18]: 0.5 µg/mL
CNC(C)C(=O)Nc1cc(N(C)C)c2c(c1O)C(=O)C1=C(O)[C@]3(O)C(=O)C(C(N)=O)=C(O)[C@@H](N(C)C)C3CC1C2.Cl.Cl (stereo partly drawn) [YY, [4S-(4alpha,12aalpha))-4,7-Bis(dimethylamino)-1,4,4a,5,5a,6,11,12a-octahydro-3,10,12,12a-tetrahydroxy-9-[[2-(methylamino)-1-oxopropyl]amino]-1,11-dioxo-2-naphthacenecarboxamide dihydrochloride] | 0.5 to 1 mg/kg | 0.5 µg/mL | 0.5 µg/mL | 0.12 µg/mL | 0.5 µg/mL | 8 µg/mL | 0.5 µg/mL | 0.25 µg/mL | >16 mg/kg | 0.25 µg/mL | 0.5 µg/mL | 0.25 µg/mL | 4 µg/mL | 0.5 µg/mL | 8 µg/mL | 0.5 µg/mL | 0.25 µg/mL | 0.5 µg/mL | 0.5 µg/mL | 8 µg/mL | Antibacterial activity (MIC) [9]: 0.5 µg/mL; Antibacterial activity (MIC) (E. coli J3272 Tet sens.): 0.5 µg/mL; Antibacterial activity (MIC) [10]: 16 µg/mL; Antibacterial activity (MIC) [11]: 0.12 µg/mL; Antibacterial activity (MIC) [13]: 0.5 µg/mL; Antibacterial activity (MIC) [14]: 4 µg/mL; Antibacterial activity (MIC) (S. aureus NEMC 8769/89-4): 0.12 µg/mL; Antibacterial activity (MIC) (E. coli BAJ9003): 0.06 µg/mL; Antibacterial activity (MIC) [15]: 0.25 µg/mL; Antibacterial activity (MIC) (E. coli J3272 TetC): 1 µg/mL; Antibacterial activity (MIC) (E. coli UBMS 89-1 (tetM)): 0.5 µg/mL; Antibacterial activity (MIC) [17]: 0.5 µg/mL; Antibacterial activity (MIC) (E. coli PRP1 TetA): 2 µg/mL; Antibacterial activity (MIC) [18]: 4 µg/mL
